# Reference: ChEMBL document CHEMBL1201862, “PubChem BioAssay data set” (2004)
# Calls of active or inactive are those of the source.
# What was measured:
# [1] = viability of uninfected HEp-2 cells – cell-based, HTS, cytotoxicity control for RSV inhibitor project, dose response (AID 2410); format: functional; conditions: human respiratory syncytial virus
# [2] = target: T1, Caspase-3 (Homo sapiens, UniProt P42574); format: functional;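 also: Dose-response selectivity test against caspase-3 for candidate inhibitors of sentrin-specific proteases (SENPs)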
# T1 sequence (P42574 whole entry): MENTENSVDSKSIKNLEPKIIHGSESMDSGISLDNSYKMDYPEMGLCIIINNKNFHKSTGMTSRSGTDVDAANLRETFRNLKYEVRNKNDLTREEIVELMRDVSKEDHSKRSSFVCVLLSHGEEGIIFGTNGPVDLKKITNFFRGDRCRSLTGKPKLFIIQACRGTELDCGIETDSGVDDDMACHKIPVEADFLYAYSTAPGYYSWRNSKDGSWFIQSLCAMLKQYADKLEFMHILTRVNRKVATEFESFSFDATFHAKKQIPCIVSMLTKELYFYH
# [3] = A Cell Based Secondary Assay To Explore Cytotoxicity of Compounds that Sensitize Mycobacterium Tuberculosis to Beta-Lactam Antibiotics.; format: functional
# [4] = target: T2, Sentrin-specific protease 6 (Homo sapiens, UniProt Q9GZR1); format: functional;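 also: Luminescence-based dose-response confirmatory assay of SENP6 inhibition, following up an ultra-high-throughput screen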
# T2 sequence (Q9GZR1 whole entry): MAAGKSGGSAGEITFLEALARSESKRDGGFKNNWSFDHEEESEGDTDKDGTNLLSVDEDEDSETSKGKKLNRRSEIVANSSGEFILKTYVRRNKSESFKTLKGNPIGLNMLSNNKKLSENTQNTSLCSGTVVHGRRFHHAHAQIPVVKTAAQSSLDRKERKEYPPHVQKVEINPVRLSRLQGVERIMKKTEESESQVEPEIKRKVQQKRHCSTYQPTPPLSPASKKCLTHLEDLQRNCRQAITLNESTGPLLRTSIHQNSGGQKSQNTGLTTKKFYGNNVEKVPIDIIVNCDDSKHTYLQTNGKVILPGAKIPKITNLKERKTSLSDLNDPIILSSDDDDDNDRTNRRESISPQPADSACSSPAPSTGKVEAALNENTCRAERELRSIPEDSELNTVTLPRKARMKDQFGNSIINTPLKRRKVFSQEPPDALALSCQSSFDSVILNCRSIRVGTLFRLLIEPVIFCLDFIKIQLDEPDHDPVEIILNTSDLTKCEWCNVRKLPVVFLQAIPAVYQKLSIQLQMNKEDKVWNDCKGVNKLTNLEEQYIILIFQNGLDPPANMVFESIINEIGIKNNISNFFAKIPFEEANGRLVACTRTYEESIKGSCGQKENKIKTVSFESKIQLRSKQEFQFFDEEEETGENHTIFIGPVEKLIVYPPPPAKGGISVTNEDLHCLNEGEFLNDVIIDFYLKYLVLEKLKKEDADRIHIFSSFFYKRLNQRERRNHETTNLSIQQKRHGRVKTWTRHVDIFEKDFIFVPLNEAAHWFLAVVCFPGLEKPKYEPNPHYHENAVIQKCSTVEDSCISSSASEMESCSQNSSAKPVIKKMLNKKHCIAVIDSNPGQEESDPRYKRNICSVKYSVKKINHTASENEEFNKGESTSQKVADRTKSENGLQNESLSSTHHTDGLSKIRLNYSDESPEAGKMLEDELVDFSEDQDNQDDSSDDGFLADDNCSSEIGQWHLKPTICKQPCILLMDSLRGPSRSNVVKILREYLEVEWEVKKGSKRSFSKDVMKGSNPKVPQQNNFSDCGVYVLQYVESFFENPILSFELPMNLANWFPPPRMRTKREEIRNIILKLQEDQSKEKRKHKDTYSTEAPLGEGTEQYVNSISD
# [5] = target: T3, Sentrin-specific protease 7 (Homo sapiens, UniProt Q9BQF6); format: functional;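 also: Luminescence-based dose-response confirmation of ultra-high-throughput screening hits, measuring inhibition of SENP7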
# T3 sequence (Q9BQF6 whole entry): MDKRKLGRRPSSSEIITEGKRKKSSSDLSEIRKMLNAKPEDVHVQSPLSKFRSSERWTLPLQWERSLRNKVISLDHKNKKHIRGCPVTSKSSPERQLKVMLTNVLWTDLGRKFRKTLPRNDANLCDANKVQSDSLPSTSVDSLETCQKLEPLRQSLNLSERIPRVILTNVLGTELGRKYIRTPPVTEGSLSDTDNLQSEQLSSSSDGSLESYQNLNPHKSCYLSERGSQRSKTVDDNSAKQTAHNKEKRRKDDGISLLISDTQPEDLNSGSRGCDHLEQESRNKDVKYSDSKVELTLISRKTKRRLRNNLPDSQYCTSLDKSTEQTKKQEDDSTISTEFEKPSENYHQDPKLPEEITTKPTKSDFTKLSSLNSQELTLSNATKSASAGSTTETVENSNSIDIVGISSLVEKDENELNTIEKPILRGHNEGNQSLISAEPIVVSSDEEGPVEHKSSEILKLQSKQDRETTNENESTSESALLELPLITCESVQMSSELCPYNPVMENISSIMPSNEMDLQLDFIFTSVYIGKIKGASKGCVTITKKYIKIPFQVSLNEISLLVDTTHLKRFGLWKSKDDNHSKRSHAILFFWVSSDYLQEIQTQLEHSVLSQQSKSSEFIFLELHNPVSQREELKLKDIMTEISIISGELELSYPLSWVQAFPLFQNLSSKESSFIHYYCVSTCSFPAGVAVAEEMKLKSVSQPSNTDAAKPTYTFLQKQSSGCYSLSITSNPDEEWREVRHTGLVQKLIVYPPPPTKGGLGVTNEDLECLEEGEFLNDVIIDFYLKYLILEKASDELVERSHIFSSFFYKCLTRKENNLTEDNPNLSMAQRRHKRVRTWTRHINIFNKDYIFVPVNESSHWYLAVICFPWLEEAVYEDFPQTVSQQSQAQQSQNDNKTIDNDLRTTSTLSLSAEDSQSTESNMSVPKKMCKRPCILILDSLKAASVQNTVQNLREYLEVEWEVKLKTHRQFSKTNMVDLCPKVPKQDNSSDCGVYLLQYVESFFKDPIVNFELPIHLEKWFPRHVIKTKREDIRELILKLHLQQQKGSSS
# [6] = target: T4, Sentrin-specific protease 8 (Homo sapiens, UniProt Q96LD8); format: functional;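 also: luminescence read-out of SENP8 inhibition, dose-response confirmation following an ultra-high-throughput screen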
# T4 sequence (Q96LD8 whole entry): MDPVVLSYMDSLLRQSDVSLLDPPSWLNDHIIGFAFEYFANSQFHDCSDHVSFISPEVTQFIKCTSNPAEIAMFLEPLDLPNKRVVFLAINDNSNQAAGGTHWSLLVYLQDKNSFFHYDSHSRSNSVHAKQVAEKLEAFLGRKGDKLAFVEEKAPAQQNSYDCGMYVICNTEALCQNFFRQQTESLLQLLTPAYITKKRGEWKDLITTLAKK
# [7] = target: Large T antigen (Simian virus 40, UniProt P03070); format: functional, Betapolyomavirus macacae;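 also: Confirmatory-stage PubChem screen for compounds that inhibit SV40 T antigen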
# Chain of Large T antigen (P03070 whole entry): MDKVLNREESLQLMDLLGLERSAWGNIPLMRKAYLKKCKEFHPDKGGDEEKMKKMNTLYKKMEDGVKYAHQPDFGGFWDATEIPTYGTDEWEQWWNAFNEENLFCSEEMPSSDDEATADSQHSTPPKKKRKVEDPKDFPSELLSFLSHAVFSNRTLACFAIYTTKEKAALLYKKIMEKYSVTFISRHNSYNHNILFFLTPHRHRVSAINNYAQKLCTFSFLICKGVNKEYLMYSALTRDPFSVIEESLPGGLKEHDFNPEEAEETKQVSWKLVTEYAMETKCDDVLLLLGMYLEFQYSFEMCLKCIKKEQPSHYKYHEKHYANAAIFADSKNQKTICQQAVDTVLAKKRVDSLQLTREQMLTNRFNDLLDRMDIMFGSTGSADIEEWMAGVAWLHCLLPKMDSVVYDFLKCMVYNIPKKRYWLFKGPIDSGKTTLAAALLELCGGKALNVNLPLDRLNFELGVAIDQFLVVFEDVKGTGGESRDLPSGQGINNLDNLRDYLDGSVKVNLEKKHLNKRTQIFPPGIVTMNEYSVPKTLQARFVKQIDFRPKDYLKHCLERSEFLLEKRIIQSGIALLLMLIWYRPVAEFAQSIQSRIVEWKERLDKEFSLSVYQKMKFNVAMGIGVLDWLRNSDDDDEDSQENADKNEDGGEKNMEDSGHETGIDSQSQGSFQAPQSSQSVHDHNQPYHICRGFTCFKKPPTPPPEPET
# [8] = system: SN12K1; assay: cells; format: functional; conditions: Homo sapiens
# [9] = target: T5, Rac GTPase-activating protein 1 (Homo sapiens, UniProt Q9H0H5); assay: blockers of MgcRacGAP-driven Rac1 GTP hydrolysis – biochemical, ADP Hunter fluorescence, primary and confirmatory, confirmation (AID 624330); format: functional
# T5 sequence (Q9H0H5 whole entry): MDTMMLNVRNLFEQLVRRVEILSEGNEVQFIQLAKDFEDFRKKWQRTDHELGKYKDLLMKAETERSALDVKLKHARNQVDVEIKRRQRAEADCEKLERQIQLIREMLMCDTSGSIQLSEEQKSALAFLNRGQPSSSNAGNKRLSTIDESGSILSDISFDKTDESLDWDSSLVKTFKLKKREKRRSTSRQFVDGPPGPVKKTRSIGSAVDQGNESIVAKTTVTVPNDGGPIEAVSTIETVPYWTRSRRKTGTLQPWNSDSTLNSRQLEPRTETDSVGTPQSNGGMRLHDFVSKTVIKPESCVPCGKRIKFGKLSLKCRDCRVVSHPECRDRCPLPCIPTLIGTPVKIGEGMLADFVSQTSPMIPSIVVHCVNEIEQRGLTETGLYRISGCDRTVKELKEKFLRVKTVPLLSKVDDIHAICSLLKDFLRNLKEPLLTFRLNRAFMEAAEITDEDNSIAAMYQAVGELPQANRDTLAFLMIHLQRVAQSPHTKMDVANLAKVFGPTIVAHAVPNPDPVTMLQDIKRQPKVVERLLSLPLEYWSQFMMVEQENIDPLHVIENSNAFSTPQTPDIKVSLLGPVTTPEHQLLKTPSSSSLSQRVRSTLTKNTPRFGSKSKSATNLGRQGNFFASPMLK
smiles,measurement,setting,value
COc1ccc(Nc2nc(-c3cccs3)nc3ccccc23)c(OC)c1,CC50,[1],32.9 µM (active)
CSc1nc(C(=O)N2CCc3c([nH]c4ccccc34)C2c2ccccn2)cs1 (stereo not given),CC50,[1],30.1 µM (active)
Cc1ccc(O)c(-c2cc(-c3ccccc3F)[nH]n2)c1,IC50,[2],31.9 µM (active)
same,CC50,[3],> 40 µM (active)
same,IC50,[4],21.9 µM (active)
same,IC50,[5],3.4 µM (active)
same,IC50,[6],4.59 µM (active)
CCCOC(=O)c1cc(-c2ccc(C=O)o2)ccc1Cl,CC50,[1],36.9 µM (active)
CCOC(=O)C1=C(C)N(c2ccccc2)C(=O)/C1=C\c1ccc(O)c(OC)c1,IC50,[7],47.1 µM (active)
COc1ccc(-c2nc(O)c3cnccn23)cc1,IC50,[7],24.2 µM (active)
Cc1ccc(-n2nc3c(=O)n(CCCC(=O)NCc4cccc(F)c4)nc(C)c3c2C)cc1,CC50,[1],> 50 µM (active)
CCOC(=O)C1C(=O)C=C(c2ccc(C)cc2)CC1c1ccccc1 (stereo not given),CC50,[1],35.4 µM (active)
C=C(C)c1sc(-c2ccc(Cl)cc2)nc1C,IC50,[2],13.4 µM (active)
same,IC50,[4],21.4 µM (active)
same,IC50,[5],6.67 µM (active)
same,IC50,[6],69.1 µM (active)
CC(C)(c1cc(Br)c(O)c(Br)c1)c1cc(Br)c(O)c(Br)c1,CC50,[1],24.9 µM (active)
Nc1ccn(C2C=C(CO)C(O)C2O)c(=O)c1 (stereo not given),GI50,[8],> 625 µM (inactive)
CCc1nnc(S)n1/N=C/c1ccc(N(C)c2ccccc2)cc1,CC50,[1],28.1 µM (active)
CCNc1nc(NCC)nc(N/N=C/c2ccc(O)c(OC)c2)n1,IC50,[7],11 µM (active)
COc1ccc(/C=N\NC(=O)c2ccc(O)nn2)cc1O,IC50,[9],26.5 µM (active)
same,IC50,[7],14.3 µM (active)
N=C1/C(=N\Nc2ccccc2F)C(=O)NN1c1ccccc1,IC50,[2],16.4 µM (active)
same,IC50,[4],2.09 µM (active)
same,IC50,[5],2.52 µM (active)
same,IC50,[6],> 100 µM (inactive)
Nc1nc2ccccc2n1/N=C/c1ccc(Br)cc1,IC50,[2],16.1 µM (active)
same,IC50,[4],5.96 µM (active)
same,IC50,[5],4.21 µM (active)
same,IC50,[6],5.66 µM (active)
